Legend:
[1] = DRUGMATRIX: GABAA, Chloride Channel, TBOB radioligand binding (ligand: [3H] TBOB); assay type: cell membranes, Rattus norvegicus, Wistar, Cerebral cortex, Membrane; settings: Not Active = under 50% inhibition at 10 µM
[2] = molecular target: Beta-2 adrenergic receptor (Homo sapiens, UniProt P07550); assay: DRUGMATRIX: Adrenergic beta2 radioligand binding (ligand: [3H] CGP-12177); assay type: cell membranes, CHO, Membrane; settings: cho; Not Active = under 50% inhibition at 10 µM
[3] = molecular target: T1, Caspase-1 (Homo sapiens, UniProt P29466); parameters: species or system Escherichia coli;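 note: Caspase-1 enzyme inhibition assay with a peptide substrate; in other assays of this panel Not Active means under 50% inhibition at 10 µM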
T1 sequence (P29466 whole entry): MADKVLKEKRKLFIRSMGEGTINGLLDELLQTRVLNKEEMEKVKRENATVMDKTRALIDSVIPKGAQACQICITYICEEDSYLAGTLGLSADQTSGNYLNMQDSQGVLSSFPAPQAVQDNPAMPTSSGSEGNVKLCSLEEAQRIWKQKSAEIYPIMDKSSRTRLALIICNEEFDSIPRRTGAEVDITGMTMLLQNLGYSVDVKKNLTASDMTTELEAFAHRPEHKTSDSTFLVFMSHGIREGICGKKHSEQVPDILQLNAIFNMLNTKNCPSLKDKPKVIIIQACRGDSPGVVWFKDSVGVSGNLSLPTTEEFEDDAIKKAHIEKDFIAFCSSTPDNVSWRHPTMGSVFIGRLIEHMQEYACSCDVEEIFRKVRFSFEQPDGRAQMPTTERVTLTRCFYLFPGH

[4] = molecular target: T2, Muscarinic acetylcholine receptor M4 (Homo sapiens, UniProt P08173); assay type: cell membranes, CHO-K1, Membrane; note: in other assays of this panel Not Active means under 50% inhibition at 10 µM
T2 sequence (P08173 whole entry): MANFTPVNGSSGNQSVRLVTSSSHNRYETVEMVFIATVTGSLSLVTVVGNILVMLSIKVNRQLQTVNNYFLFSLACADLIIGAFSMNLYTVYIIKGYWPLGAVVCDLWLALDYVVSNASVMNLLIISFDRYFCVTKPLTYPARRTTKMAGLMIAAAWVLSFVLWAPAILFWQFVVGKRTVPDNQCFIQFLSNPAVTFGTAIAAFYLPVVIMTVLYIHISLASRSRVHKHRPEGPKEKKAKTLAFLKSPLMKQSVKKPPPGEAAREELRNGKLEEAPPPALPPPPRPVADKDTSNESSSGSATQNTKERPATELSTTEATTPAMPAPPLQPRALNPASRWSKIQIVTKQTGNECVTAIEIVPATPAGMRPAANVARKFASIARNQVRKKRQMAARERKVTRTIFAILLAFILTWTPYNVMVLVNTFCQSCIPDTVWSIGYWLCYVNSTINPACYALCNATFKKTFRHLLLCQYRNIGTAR

[5] = molecular target: Cytochrome P450 3A4 (Homo sapiens, UniProt P08684); settings: bti-tn-5b1-4; note: in other assays of this panel Not Active means under 50% inhibition at 10 µM
Cytochrome P450 3A4, sequence (P08684 whole entry): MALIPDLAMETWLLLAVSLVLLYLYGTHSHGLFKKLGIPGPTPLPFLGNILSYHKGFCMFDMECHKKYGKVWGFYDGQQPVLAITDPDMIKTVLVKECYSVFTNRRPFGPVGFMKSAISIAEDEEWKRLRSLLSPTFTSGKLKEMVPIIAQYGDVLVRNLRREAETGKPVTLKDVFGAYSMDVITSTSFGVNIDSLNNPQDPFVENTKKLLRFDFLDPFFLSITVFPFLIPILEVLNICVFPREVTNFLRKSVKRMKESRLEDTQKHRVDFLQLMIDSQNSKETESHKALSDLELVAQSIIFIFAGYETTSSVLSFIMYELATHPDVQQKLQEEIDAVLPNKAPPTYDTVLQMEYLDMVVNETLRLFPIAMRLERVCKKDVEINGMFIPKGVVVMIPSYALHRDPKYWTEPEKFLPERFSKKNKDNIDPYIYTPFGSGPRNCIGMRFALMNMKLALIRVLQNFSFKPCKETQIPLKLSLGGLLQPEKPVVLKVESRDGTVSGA

[6] = DRUGMATRIX: Interleukin IL-1 radioligand binding (ligand: [125I] interleukin 1beta); assay type: cell membranes, Membrane; settings: nih3t3; Not Active = under 50% inhibition at 10 µM
[7] = DRUGMATRIX: Glutamate, NMDA, Agonism radioligand binding (ligand: [3H] CGP-39653); assay type: cell membranes, Rattus norvegicus, Wistar, Cerebral cortex, Membrane; settings: Not Active = under 50% inhibition at 10 µM

Beta-2 adrenergic receptor, sequence (P07550 whole entry): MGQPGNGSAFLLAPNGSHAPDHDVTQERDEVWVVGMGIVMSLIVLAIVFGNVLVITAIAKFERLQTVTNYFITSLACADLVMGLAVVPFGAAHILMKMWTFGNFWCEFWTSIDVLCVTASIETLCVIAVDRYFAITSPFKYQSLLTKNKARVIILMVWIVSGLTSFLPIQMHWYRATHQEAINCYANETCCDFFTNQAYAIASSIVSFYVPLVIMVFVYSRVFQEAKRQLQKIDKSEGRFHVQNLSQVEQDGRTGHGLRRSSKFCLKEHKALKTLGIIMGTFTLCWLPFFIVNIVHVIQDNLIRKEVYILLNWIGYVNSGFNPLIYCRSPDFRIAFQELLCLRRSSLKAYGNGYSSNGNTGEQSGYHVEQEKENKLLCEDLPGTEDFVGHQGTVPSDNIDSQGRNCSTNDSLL

SMILES | IC50 [1] | Ki [1] | IC50 [2] | IC50 [3] | IC50 ([4]; cho-k1) | IC50 [5] | Ki [5] | IC50 [6] | Ki [6] | IC50 [7] | Ki [7] | IC50 ([4]; read-out: IC50) [µM] | Ki ([4]; read-out: Ki) [nM]
Clc1cc(Cl)c(OCC#CI)cc1Cl [HALOPROGIN] | Not Active | Not Active | Not Active | Not Active | Not Active | Not Active | Not Active | Not Active | Not Active | Not Active | Not Active | – | –
O=c1[nH]cnc2c1ncn2[C@H]1CC[C@@H](CO)O1 [DIDANOSINE] | Not Active | Not Active | Not Active | Not Active | Not Active | Not Active | Not Active | Not Active | Not Active | Not Active | Not Active | – | –
Cl.NC[C@H]1CC[C@H](C(=O)Oc2ccc(CCC(=O)O)cc2)CC1 [CETRAXATE HYDROCHLORIDE] | Not Active | Not Active | Not Active | Not Active | Not Active | Not Active | Not Active | Not Active | Not Active | Not Active | Not Active | – | –
COc1cc(/C=C/C(=O)O)ccc1O [FERULATE] | Not Active | Not Active | Not Active | Not Active | Not Active | Not Active | Not Active | Not Active | Not Active | Not Active | Not Active | – | –
O=C(O)CCc1nc(-c2ccccc2)c(-c2ccccc2)o1 [OXAPROZIN] | Not Active | Not Active | Not Active | Not Active | Not Active | Not Active | Not Active | Not Active | Not Active | Not Active | Not Active | – | –
c1ccc(Cn2ccnc2)cc1 | Not Active | Not Active | Not Active | Not Active | Not Active | Not Active | Not Active | Not Active | Not Active | Not Active | Not Active | – | –
Nc1nc(N)c2nc(CNc3ccc(C(=O)N[C@@H](CCC(=O)O)C(=O)O)cc3)cnc2n1 [AMINOPTERIN] | Not Active | Not Active | Not Active | Not Active | Not Active | Not Active | Not Active | Not Active | Not Active | Not Active | Not Active | – | –
CC(=O)Nc1ccc2c(c1)Cc1ccccc1-2 [2-ACETYLAMINOFLUORENE] | Not Active | Not Active | Not Active | Not Active | Not Active | Not Active | Not Active | Not Active | Not Active | Not Active | Not Active | – | –
C=C(Cl)Cl [1,1-DICHLOROETHENE] | Not Active | Not Active | Not Active | Not Active | Not Active | Not Active | Not Active | Not Active | Not Active | Not Active | Not Active | – | –
CC[C@H]1OC(=O)[C@H](C)[C@@H](O[C@H]2C[C@@](C)(OC)[C@@H](O)[C@H](C)O2)[C@H](C)[C@@H](O[C@@H]2O[C@H](C)C[C@H](N(C)C)[C@H]2O)[C@](C)(O)C[C@@H](C)C(=O)[C@H](C)[C@@H](O)[C@]1(C)O [ERYTHROMYCIN] | Not Active | Not Active | Not Active | Not Active | Not Active | Not Active | Not Active | Not Active | Not Active | Not Active | Not Active | – | –
c1ccc2c(c1)Nc1ccccc1S2 [PHENOTHIAZINE] | Not Active | Not Active | Not Active | Not Active | Not Active | Not Active | Not Active | Not Active | Not Active | Not Active | Not Active | – | –
C[C@H](C(=O)O)c1ccc2oc(-c3ccc(F)cc3)nc2c1 [FLUNOXAPROFEN] | Not Active | Not Active | Not Active | Not Active | Not Active | Not Active | Not Active | Not Active | Not Active | Not Active | Not Active | – | –
CC1(COc2ccc(CC3SC(=O)NC3=O)cc2)CCCCC1 (stereo not drawn) [CIGLITAZONE] | Not Active | Not Active | Not Active | Not Active | – | Not Active | Not Active | Not Active | Not Active | Not Active | Not Active | 16.2 | 2260
C=CCN1CC[C@]23c4c5ccc(O)c4O[C@H]2/C(=N/N=C2\CC[C@@]4(O)[C@H]6Cc7ccc(O)c8c7[C@@]4(CCN6CC=C)[C@H]2O8)CC[C@@]3(O)[C@H]1C5 [NALOXONAZINE] | Not Active | Not Active | Not Active | Not Active | Not Active | Not Active | Not Active | Not Active | Not Active | Not Active | Not Active | – | –
C[N+](C)(C)CCOP(=O)([O-])OC[C@H](O)CO | Not Active | Not Active | Not Active | Not Active | Not Active | Not Active | Not Active | Not Active | Not Active | Not Active | Not Active | – | –
CCC1(c2ccccc2)C(=O)NC(=O)NC1=O [PHENOBARBITAL] | Not Active | Not Active | Not Active | Not Active | Not Active | Not Active | Not Active | Not Active | Not Active | Not Active | Not Active | – | –
O=C(O)COC(=O)Cc1ccccc1Nc1c(Cl)cccc1Cl [ACECLOFENAC] | Not Active | Not Active | Not Active | Not Active | Not Active | Not Active | Not Active | Not Active | Not Active | Not Active | Not Active | – | –
